Measured values as given in ChEMBL document CHEMBL3045972, “Effect of side-chain alteration on hormonal activity of nonsteroidal estrogen antagonists” (2010).

Assays:
[1] = test system: Rattus norvegicus; experiment: Estrogenic activity in Rattus norvegicus (rat) assessed as increase in uterine weight at 3 mg/kg, sc qd after 3 days relative to control; assay type: functional; details: route subcutaneous; for uterine weight increase relative to control at 3 mg/kg: Rattus norvegicus, sc, 72 h, read-out: INH; for uterine weight increase relative to control: 3 mg/kg
[2] = target: T1, Estrogen receptor (Rattus norvegicus) (UniProt P06211); experiment: Binding affinity to Charles Foster Rattus norvegicus (rat) uterine 17beta-estradiol receptor cytosolic form relative to estradiol
T1 sequence (whole entry): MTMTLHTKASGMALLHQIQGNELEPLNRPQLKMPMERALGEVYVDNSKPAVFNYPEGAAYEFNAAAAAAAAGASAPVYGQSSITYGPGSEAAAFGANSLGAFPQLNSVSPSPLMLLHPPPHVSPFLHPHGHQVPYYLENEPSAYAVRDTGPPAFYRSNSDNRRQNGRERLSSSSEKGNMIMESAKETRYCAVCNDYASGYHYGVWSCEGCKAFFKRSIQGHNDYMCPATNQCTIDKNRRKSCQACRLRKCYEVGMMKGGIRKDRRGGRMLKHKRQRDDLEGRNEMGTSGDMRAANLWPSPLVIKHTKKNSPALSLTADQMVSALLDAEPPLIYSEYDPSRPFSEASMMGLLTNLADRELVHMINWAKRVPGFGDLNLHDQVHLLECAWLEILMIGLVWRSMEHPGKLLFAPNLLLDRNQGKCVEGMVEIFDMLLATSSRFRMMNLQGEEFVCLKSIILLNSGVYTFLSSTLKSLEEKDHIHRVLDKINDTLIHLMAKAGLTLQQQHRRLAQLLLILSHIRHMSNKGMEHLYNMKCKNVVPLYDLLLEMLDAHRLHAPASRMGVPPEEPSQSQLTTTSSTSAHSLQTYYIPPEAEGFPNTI

[3] = test system: Rattus norvegicus; experiment: Antiestrogenic activity in Rattus norvegicus Sprague-Dawley (rat) assessed as inhibition of ethynylestradiol-induced uterine weight at 3 mg/kg, po qd administered 3 days measured on day 31 relative to control; assay type: functional; details: for inhibition in vivo at 3 mg/kg: Rattus norvegicus, Sprague-Dawley, po
[4] = test system: Rattus norvegicus; experiment: Estrogenic activity in Rattus norvegicus (rat) assessed as increase in uterine weight at 10 mg/kg, sc qd after 3 days relative to control; assay type: functional; details: route subcutaneous
[5] = test system: Rattus norvegicus; experiment: Antiestrogenic activity in Rattus norvegicus Sprague-Dawley (rat) assessed as inhibition of ethynylestradiol-induced uterine weight at 10 mg/kg, po qd administered 3 days measured on day 31 relative to control; assay type: functional; details: for inhibition in vivo at 10 mg/kg: Rattus norvegicus, Sprague-Dawley, po; for inhibition (INH): 10 mg/kg

Structure (SMILES) | Activity [2] [%] | Activity [4] [%] | inhibition in vivo at 10 mg/kg [5] [%] | further results
COc1ccc2c(c1)OC(C)(C)[C@H](c1ccccc1)[C@H]2c1ccc(O)cc1 | 2.1 | – | – | uterine weight increase relative to control at 3 mg/kg [1]: 109%; inhibition in vivo at 3 mg/kg [3]: 50%
COc1ccc2c(c1)OC(C)(C)[C@H](c1ccccc1)[C@@H]2c1ccc(OC(C)C(=O)O)cc1 (relative stereo) | – | 44.2 | 3.8 | –
COc1ccc2c(c1)OC(C)(C)[C@H](c1ccccc1)[C@@H]2c1ccc(OC(C)C(=O)NN)cc1 (relative stereo) | 0.011 | 110.22 | 1.07 | –
CCOC(=O)C(C)Oc1ccc([C@@H]2c3ccc(OC)cc3OC(C)(C)[C@H]2c2ccccc2)cc1 (relative stereo) [listing 1 of 2 here] | – | 43.7 | 3.98 | –
COc1ccc2c(c1)OC(C)(C)[C@@H](c1ccccc1)[C@@H]2c1ccc(OC(C)C(=O)O)cc1 (relative stereo) | – | – | 10.8 | Activity ([4]; 10 mg/kg): 21.6%
COc1ccc2c(c1)OC(C)(C)[C@@H](c1ccccc1)[C@@H]2c1ccc(OC(C)C(=O)NN)cc1 (relative stereo) [listing 1 of 2 here] | – | – | – | Activity ([4]; 10 mg/kg): 101.91%; inhibition (INH) [5]: 12.14%
COc1ccc2c(c1)OC(C)(C)[C@H](c1ccccc1)[C@@H]2c1ccc(O)cc1 (relative stereo) | < 0.001 | 33.6 | – | –
CCOC(=O)C(C)Oc1ccc([C@@H]2c3ccc(OC)cc3OC(C)(C)[C@@H]2c2ccccc2)cc1 (relative stereo) | – | 71.58 | 3.71 | –
CCOC(=O)C(C)Oc1ccc([C@@H]2c3ccc(OC)cc3OC(C)(C)[C@H]2c2ccccc2)cc1 (relative stereo) [listing 2 of 2 here] | 0.029 | – | – | –
COc1ccc2c(c1)OC(C)(C)[C@@H](c1ccccc1)[C@@H]2c1ccc(OC(C)C(=O)NN)cc1 (relative stereo) [listing 2 of 2 here] | 0.052 | – | – | –
COc1ccc2c(c1)OC(C)(C)[C@@H](c1ccccc1)[C@@H]2c1ccc(O)cc1 (relative stereo; 1b) [listing 1 of 2 here] | – | – | – | uterine weight increase relative to control [1]: 126.83%; inhibition in vivo at 3 mg/kg [3]: 60%
COc1ccc2c(c1)OC(C)(C)[C@@H](c1ccccc1)[C@@H]2c1ccc(O)cc1 (relative stereo; 1b) [listing 2 of 2 here] | 5.42 | – | – | –
COc1ccc2c(c1)OC(C)(C)[C@@H](c1ccccc1)[C@@H]2c1ccc(O)cc1 (relative stereo; 1c) [listing 1 of 2 here] | – | – | – | uterine weight increase relative to control [1]: 165%; inhibition (INH) ([3]; 3 mg/kg): 46.11%
COc1ccc2c(c1)OC(C)(C)[C@@H](c1ccccc1)[C@@H]2c1ccc(O)cc1 (relative stereo; 1c) [listing 2 of 2 here] | 15.7 | – | – | –
CCOC(=O)C(C)Oc1ccc([C@H]2c3ccc(OC)cc3OC(C)(C)[C@@H]2c2ccccc2)cc1 (single isomer, unassigned; (+)) | – | 0.19 | 14.3 | –
COc1ccc2c(c1)OC(C)(C)[C@H](c1ccccc1)[C@H]2c1ccc(OC(C)C(=O)O)cc1 (single isomer, unassigned; (+)) | – | 6.88 | 16.1 | –
COc1ccc2c(c1)OC(C)(C)[C@H](c1ccccc1)[C@H]2c1ccc(OC(C)C(=O)NN)cc1 (single isomer, unassigned; (+)) | 0.24 | 6.68 | 6.21 | –
CCOC(=O)C(C)Oc1ccc([C@@H]2c3ccc(OC)cc3OC(C)(C)[C@H]2c2ccccc2)cc1 (single isomer, unassigned; (-)) | – | – | – | uterine weight increase relative to control at 3 mg/kg [1]: 122%; inhibition in vivo at 3 mg/kg [3]: 40.6%
COc1ccc2c(c1)OC(C)(C)[C@@H](c1ccccc1)[C@@H]2c1ccc(OC(C)C(=O)NN)cc1 (single isomer, unassigned; (-)) [listing 1 of 2 here] | – | – | – | Activity ([4]; 10 mg/kg): 155.02%; inhibition (INH) [5]: 25.37%
COc1ccc2c(c1)OC(C)(C)[C@@H](c1ccccc1)[C@@H]2c1ccc(OC(C)C(=O)NN)cc1 (single isomer, unassigned; (-)) [listing 2 of 2 here] | 0.37 | – | – | –
COc1ccc2c(c1)OC(C)(C)[C@@H](c1ccccc1)[C@@H]2c1ccc(OC(C)C(=O)O)cc1 (stereo in doubt; 3c) [listing 1 of 2 here] | – | – | – | Activity ([4]; 10 mg/kg): 149%; inhibition (INH) [5]: 10%
COc1ccc2c(c1)OC(C)(C)[C@@H](c1ccccc1)[C@@H]2c1ccc(OC(C)C(=O)O)cc1 (stereo in doubt; 3c) [listing 2 of 2 here] | 0.037 | – | – | –
